According to patent publication US20240391923A1, “METHIONINE ADENOSYLTRANSFERASE 2A INHIBITOR FOR TREATING MTAP DELETION-TYPE CANCER” (SUZHOU GENHOUSE BIO CO., LTD., priority 2022, published 2024):
Like-named read-outs stand apart in the source and are kept apart here.

Experiments:
[1] = system: HCT116-MTAP wild-type (+/+)-cell strain; assay: Tumor cell proliferation inhibition assay (CellTiter-Glo), HCT116-MTAP wild-type (+/+); assay type: cell-based; details: Homo sapiens, 120 h, HCT116-MTAP wild-type (+/+) cells, 5-day treatment
Summary of the method: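 Cells seeded, then after 24 h treated with 10-point 1:3 dilutions from 10 μM top concentration, DMSO control. Cultured 5 days at 37 °C/5% CO2; growth inhibition from ATP level by CellTiter-Glo luminescence.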

[2] = system: SDMA in HCT116-MTAP-knockout cell line; assay: Cell symmetric dimethylarginine (SDMA) test, In-cell Western, HCT116-MTAP-knockout; assay type: cell-based; details: Homo sapiens, 96 h
[3] = Saturation solubility of samples in FaSSIF solution; assay type: physicochemical; details: FaSSIF pH 6.5, room temperature overnight
Method: About 0.21 g of sodium hydroxide, about 2.24 g of sodium dihydrogen phosphate dihydrate, and 3.09 g of sodium chloride were weighed out and dissolved in 500 mL of water, and then the pH was adjusted to 6.5 with 1 N sodium hydroxide or 1 N hydrochloric acid. 112 mg of FaSSIF solid was weighed out and placed in a 50 mL volumetric flask, and the above buffer was added for dissolution, diluted to volume, mixed well, and left to stand at room temperature for 2 h or more.
• Test sample: about 1 mg of the test sample was taken, and 1 mL of FaSSIF solution was added. The mixture was stirred at room temperature overnight and centrifuged, and the supernatant was collected and injected for analysis. • Control substance solution: about 1.5 mg of the test sample was precisely weighed out and placed in a 50 mL volumetric flask, and DMF was added for dissolution, diluted to volume, and mixed well.
• Mobile phase A: 1000 mL of purified water was accurately weighed out, 1 mL of formic acid was added, and the mixture was mixed well and degassed with ultrasonic. • Mobile phase B: acetonitrile
The peak of the main component of the control substance and the peak of the test substance consistent with the retention time of the peak of the main component of the control substance were integrated, and the concentration thereof in the FaSSIF solution was calculated according to external standard method.

[4] = system: SDMA in human colon cancer cell line HCT116; assay: Cell symmetric dimethylarginine (SDMA) test, In-cell Western, HCT116 (MTAP wild-type); assay type: cell-based; details: Homo sapiens, HCT-116, 96 h
Summary of the method: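 SDMA level, an indirect readout of cellular MAT2A inhibition, measured by In-cell Western as background-subtracted 800/700 nm signal against DRAQ5. Cells exposed 4 days to six 1:4-diluted doses from 6 μM; inhibition relative to DMSO, IC50 from sigmoidal fit.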

[5] = Pharmacokinetic test in mice (IV and PO); assay type: in vivo; details: BALB/c mice; for AUC / clearance / half-life / Vd / bioavailability: mouse, plasma; for half-life: read-out: T½ (converted); for Vd: read-out: Vz
[6] = molecular target: MAT2A recombinant protein (Homo sapiens, UniProt P31153); assay: MAT2A inhibitory activity (malachite green colorimetric enzyme assay); assay type: biochemical
Summary of the method: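 Compounds tested over 10 points, 3-fold dilutions, top final concentration 1000 nM. Enzyme reaction: MAT2A, L-methionine, ATP, room temperature, 60 min, in HEPES pH 7.5 buffer with KCl, MgCl2 and DTT; inorganic phosphate read colorimetrically (malachite green, A630). Inhibition vs log concentration fitted for IC50.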

[7] = IC50 score, read-out: Tumor cell 5-day relative growth inhibition (HCT116-MTAP+/+) (nM), score
[8] = IC50 value, read-out: Tumor cell 5-day relative growth inhibition (HCT116-MTAP+/+)
[9] = IC50 score class, read-out: Cell 96 h SDMA Inhibition (HCT116-MTAP−/−) (score)
[10] = read-out: Cell 96 h SDMA Inhibition (HCT116-MTAP−/−)
[11] = IC50 score class, read-out: Cell 96 h SDMA Inhibition (HCT116-MTAP+/+) (score)
[12] = read-out: Cell 96 h SDMA inhibition (HCT116-MTAP+/+)
[13] = IC50 score class, read-out: MAT2A Inhibition (score)

Chain of MAT2A recombinant protein (P31153 whole entry): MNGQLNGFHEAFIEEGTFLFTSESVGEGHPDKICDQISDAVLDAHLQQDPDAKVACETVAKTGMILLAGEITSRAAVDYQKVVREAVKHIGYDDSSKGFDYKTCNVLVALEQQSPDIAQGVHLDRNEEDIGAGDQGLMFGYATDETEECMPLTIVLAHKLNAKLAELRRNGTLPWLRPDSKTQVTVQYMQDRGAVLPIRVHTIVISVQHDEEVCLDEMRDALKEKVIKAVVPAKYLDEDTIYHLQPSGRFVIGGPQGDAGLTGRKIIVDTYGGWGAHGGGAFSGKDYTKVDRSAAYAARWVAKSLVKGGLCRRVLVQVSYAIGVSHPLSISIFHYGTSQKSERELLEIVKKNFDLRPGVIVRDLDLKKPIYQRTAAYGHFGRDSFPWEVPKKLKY

SMILES	IC50 [1, 7]	IC50 [1, 8]	IC50 [2, 9]	IC50 [2, 10]	FaSSIF (pH = 6.5) (μg/mL) [3]	IC50 [4, 11]	IC50 [4, 12]	AUC ([5]; IV 2 mg/kg)	clearance ([5]; IV 2 mg/kg)	half-life ([5]; IV 2 mg/kg)	Vd ([5]; IV 2 mg/kg)	AUC ([5]; PO 10 mg/kg)	half-life ([5]; PO 10 mg/kg)	IC50 [6, 13]	IC50 ([6]; read-out: MAT2A Inhibition)	AUC (in words) ([5]; summary of Table 7)	half-life (T½) (in words) ([5]; summary of Table 7)	bioavailability ([5]; IV 2 mg/kg, PO 10 mg/kg)	also measured
Cn1cc2c(n1)c(=O)n(-c1cccnc1C1CC1)c1cc(Cl)c(F)cc21 [Compound B340]	≥ 2000 nM	> 10000 nM	< 200 nM	12 nM	36 μg/mL	> 3000 nM	> 10000 nM	46 µM·h	1.83 mL/min/kg	9.3 h	1.58 L/kg	219 µM·h	7.7 h						
Cn1cc2c(n1)c(=O)n(-c1cccc3[nH]ncc13)c1cc(Cl)c(F)cc21 [Compound B257]	500 to 2000 nM	464 nM	< 200 nM	70 nM	248 μg/mL	1000 to 3000 nM	2160 nM	49.8 µM·h	0.917 mL/min/kg	9.8 h	0.8 L/kg	2110 µM·h	34.2 h	< 100 nM	39.6 nM	relatively high	relatively long	220%	
Cn1cc2c(n1)c(=O)n(-c1ccccc1Cl)c1nc(C(F)(F)F)ccc21 [Compound B182]	≥ 2000 nM	7340 nM	< 200 nM	176 nM	17.6 μg/mL	> 3000 nM	> 3000 nM							< 100 nM	56.9 nM				
Cn1cc2c(n1)c(=O)n(-c1cccc3[nH]ncc13)c1nc(C(F)(F)F)ccc21 [Compound B181]	500 to 2000 nM	1340 nM	< 200 nM	29 nM	20.7 μg/mL	200 to 1000 nM	480 nM	34.3 µM·h	2.33 mL/min/kg	7.3 h	1.4 L/kg	242 µM·h	3.45 h	< 100 nM	14.7 nM	relatively high	relatively long	131%	
Cc1ncccc1-n1c(=O)c2nn(C)cc2c2ccc(C(F)(F)F)nc21 (single isomer, unassigned) [Compound B180]	< 500 nM	191 nM	< 200 nM	10.3 nM		< 200 nM	99.2 nM	3.37 µM·h	27.3 mL/min/kg	0.16 h	0.4 L/kg	46.2 µM·h	0.51 h					274%	
Cn1cc2c(n1)c(=O)n(-c1cccc3[nH]ncc13)c1cc(Cl)ccc21 [Compound B60]	500 to 2000 nM	1000 nM	< 200 nM	34.9 nM	20.9 μg/mL	200 to 1000 nM	467 nM	119 µM·h	0.667 mL/min/kg	10 h	0.6 L/kg	683 µM·h	9 h	< 100 nM	47.5 nM	relatively high	relatively long	115%	
O=c1c2n[nH]cc2c2ccc(C(F)(F)F)nc2n1-c1cccnc1 [Compound B178]	≥ 2000 nM	≥ 2000 nM	< 200 nM	37.1 nM		1000 to 3000 nM	1060 nM							< 100 nM	19 nM				
Cn1cc2c(n1)c(=O)n(-c1cccc3[nH]ncc13)c1cc(Cl)c(C#N)cc21 [Compound B258]	≥ 2000 nM	> 10000 nM	< 200 nM	67.6 nM	131 μg/mL	> 3000 nM	> 10000 nM	21.4 µM·h	2.08 mL/min/kg	14.2 h	2.6 L/kg			< 100 nM	28 nM	relatively high	relatively long		tissue distribution (in words) ([5]; concluded from Vz, Table 7): good; Vz value (in words) ([5]; summary of Table 7): relatively high; bioavailability ([5]; IV 2 mg/kg, PO 5 mg/kg): 93%; AUC ([5]; PO 5 mg/kg): 80.7 µM·h; half-life ([5]; PO 5 mg/kg): 7.7 h
Cn1cc2c(n1)c(=O)n(-c1cccnc1)c1cc(Cl)ccc21 [Compound B12]	500 to 2000 nM	1650 nM	200 to 1000 nM	219 nM		1000 to 3000 nM	1420 nM	4.5 µM·h	22.7 mL/min/kg	0.98 h	1.9 L/kg	26.8 µM·h	0.81 h						
Cn1cc2c(n1)c(=O)n(-c1cccc(O)c1)c1nc(C(F)(F)F)ccc21 [Compound B148]			< 200 nM	49.2 nM		1000 to 3000 nM	1030 nM							< 100 nM	24.6 nM				
